Source: patent publication US20240174680A1, “CDK2 INHIBITORS AND METHODS OF USING THE SAME” (Cedilla Therapeutics, Inc., priority 2021, published 2024)

How the values were obtained:
[1] = tested on: Kuramochi cells; experiment: BrdU cell proliferation assay (colorimetric ELISA); format: cell-based; settings: read-out: BrdU - KURAMOCHI.1: IC50
Protocol: A BrdU assay was used as a measure of proliferation based on the DNA replication process of proliferating cells. BrdU, a pyrimidine analog, is added to the cell culture and incorporated into the DNA of proliferating cells. The presence of the BrdU analog was then measured through a colorimetric ELISA. After fixation and permeabilization of cells, peroxidase-conjugated antibody recognizing BrdU is added and allowed to incubate, followed by thorough washing to remove unbound antibody. In order to quantify the amount of bound antibody, peroxidase substrate is added and produces a color that can be measured at 450 nm.
On day −1, Kuramochi cells (Sekisui XenoTech JCRB0098) were seeded at 2,000 cells/well in columns 2-12 of a 96 well plate (Corning, CLS3596) in 150 μL media and allowed to adhere overnight at 37 degree with 5% CO2.
On day 0, the source plate was prepared by adding 10 mM compounds and performing 3-fold serial dilutions for a 10-point dose response of each compound. Using a multichannel pipette, 2 μL of the contents of the source plate were stamped into an intermediate plate with 500 μL of RPMI 1640 Media, GlutaMAX Supplement (Life Technologies, 61870127) in each well of a Nunc 96 DeepWell™ plate, non-treated 96 DeepWell plate, 2 mL/well, sterile, natural, 60/cs (Sigma Z717274) and mixed thoroughly. 50 μL from each well of this intermediate plate were added to 4 wells of a 96-well plate with previously seeded Kuramochi cells.
On day 4, the plates were developed using the BrdU ELISA Cell Proliferation Assay according to manufacturer's instructions (Roche, 11647229001). Briefly, BrdU was diluted 1:100 in Gibco®, OptiMEM® and 20 μL/well was added, shaken for 10 minutes at 350 rpm, and then returned to the incubator for 1 hour. Following incubation, the medium was discarded, and the cells were fixed by adding 200 μL of Fix/Denature solution. The anti-BrdU peroxidase antibody was diluted 1:1000 in OptiMEM, added at 100 μL/well, and incubated while shaking (350 rpm) for one hour. Three washes with PBS were performed to remove any unbound antibody, followed by the addition of 100 μL of substrate solution to each well. 25 μL/well of 1M sulfuric acid solution was then added to halt the reaction, and plates were read out using an Envision spectrophotometer (Perkin Elmer) set to read 450 nm absorbance. Background absorbance values from empty wells were subtracted from all samples and then normalized to DMSO treated wells.

[2] = tested on: Kuramochi cells labeled with mApple-H2B; experiment: IncuCyte cell proliferation assay; format: cell-based; settings: 72 hours
Protocol: IncuCyte® assay was used to measure the effect of disclosed compounds on cell proliferation. Fluorescent microscopy images of cells were taken immediately after compound treatment and 72 hours later. Image analysis software was used to obtain cell counts as a function of compound concentration. Kuramochi cells labeled with mApple-H2B were seeded on 384-well assay-ready plates. Plates were placed in an IncuCyte® (Sartorius) and scanned at 0 and 72 hours. IncuCyte® software was used to count the number of fluorescent nuclei in each well. The fold change in cell count from 0 to 72 hours in wells treated with increasing compounds concentrations (10 pts, 1/2 log dilution, 20 μM top concentration) was normalized to DMSO control wells. The normalized cell counts were fit with dose response curves and a […] was calculated.
Compounds with an ICp greater than 0.5 μM and less than or equal to 5.0 μM are designated as “B”.

[3] = target: CDK2/Cyclin E1 (Homo sapiens, UniProt P24941); experiment: CDK2/Cyclin E1 Caliper LabChip EZ Reader mobility shift assay; format: biochemical; design: purchased Eurofins 14-475; settings: read-out: Caliper Assay (CDK2/CCNE1): IC50
Method in brief: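 Mobility-shift kinase assay: compound titrations preincubated 30 min with enzyme and ATP, reaction started with 5-FAM-QSPKKG-CONH2 peptide. Final 2.5 nM CDK2/Cyclin E1, 100 μM ATP, 1.5 μM peptide, HEPES pH 7.5; stopped with EDTA after 100 min. IC50 from four-parameter fit of normalized conversion ratio.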

Structure (SMILES)	IC50 [1] [µM]	IC50 [2] [µM]	IC50 [3] [µM]
COCC1CCCN(C(=O)[C@@H](NC(=O)[C@H]2CN(C(=O)c3cnn(Cc4ccccc4)c3)CC23CN(C(=O)[C@H]2CC2(C)C)C3)[C@@H](C)OCC2CCCCC2)C1 (stereo partly drawn) [I-111]	≤ 0.5	0.5 to 5	
C[C@@H](OCc1ccccc1)[C@H](NC(=O)C1CN(C(=O)c2cnn(Cc3ccccc3)c2)CC12CN(C(=O)C1CC1(C)C)C2)C(=O)NCCCCCNC(=O)OC(C)(C)C (stereo partly drawn) [I-52]	0.5 to 5	0.5 to 5	
CNC(=O)[C@@H](NC(=O)[C@@H]1CN(C(=O)c2cncs2)CC12CN(CC1CCOCC1)C2)[C@@H](C)OCC12CCC(CC1)OC2 [I-346]	> 10	> 20	> 10
C[C@@H](OCC1CCC(F)(F)CC1)[C@H](NC(=O)C1CN(C(=O)c2cnn(Cc3ccc(F)cc3)c2)CC12CN(C(=O)C1(C(F)(F)F)CC1)C2)C(=O)N1CCC(F)(F)CC1 (single isomer, unassigned) [I-190B]	0.5 to 5	5 to 20	
